Experimental data reported in ChEMBL document CHEMBL1201862, “PubChem BioAssay data set” (2004).
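Cells were grown in 96-well plates and exposed to each compound for 48 hours at five concentrations; endpoints were interpolated linearly between bracketing concentrations, or set to the highest concentration if not reached. Here, GI50 denotes the concentration required for 50% inhibition of growth.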 Active and inactive are the calls of the source. Rule as the data show it: active = GI50 up to about 1.1 µM and inactive = higher.

Experiments:
Experiment in all cases: NCI-60 cell line screen, 48 h
HT-29 = tested on: HT-29
HCC 2998 = tested on: HCC 2998
IGROV-1 = tested on: IGROV-1
EKVX = tested on: EKVX
RPMI-8226 = tested on: RPMI-8226
UACC-257 = tested on: UACC-257
OVCAR-3 = tested on: OVCAR-3
NCI-H460 = tested on: NCI-H460
SK-OV-3 = tested on: SK-OV-3
ACHN = tested on: ACHN
NCI-H226 = tested on: NCI-H226
KM12 = tested on: KM12
COLO 205 = tested on: COLO 205
U-251 = tested on: U-251
LOX IMVI = tested on: LOX IMVI
K562 = tested on: K562
MOLT-4 = tested on: MOLT-4
SNB-75 = tested on: SNB-75
786-0 = tested on: 786-0

Measured: GI50

O=C1[C@H]2ON(c3ccccc3)C(c3ccc(Cl)cc3)[C@H]2C(=O)N1c1ccc(Cc2ccc(N3C(=O)[C@@H]4ON(c5ccccc5)C(c5ccc(Cl)cc5)[C@@H]4C3=O)cc2)cc1 (stereo partly drawn)
inactive: HT-29 > 100 µM | HCC 2998 > 100 µM | IGROV-1 > 100 µM | EKVX > 100 µM | RPMI-8226 > 100 µM | UACC-257 > 100 µM | OVCAR-3 > 100 µM | NCI-H460 > 100 µM | SK-OV-3 > 100 µM | ACHN > 100 µM | NCI-H226 > 100 µM | KM12 > 100 µM | COLO 205 > 100 µM | U-251 > 100 µM | LOX IMVI > 100 µM | K562 > 100 µM | MOLT-4 > 100 µM | SNB-75 > 100 µM | 786-0 > 100 µM

O=C(/C=C/c1ccccc1)c1ccc(NCc2nc3ccccc3[nH]2)cc1
inactive: HT-29 2.58 µM | HCC 2998 2.12 µM | IGROV-1 6.56 µM | EKVX 8.65 µM | RPMI-8226 2.29 µM | UACC-257 3.73 µM | OVCAR-3 2.8 µM | NCI-H460 3.27 µM | SK-OV-3 6.37 µM | ACHN 7.66 µM | NCI-H226 4.19 µM | KM12 1.95 µM | COLO 205 3.21 µM | U-251 1.91 µM | LOX IMVI 1.69 µM | K562 2.51 µM | MOLT-4 3.56 µM | SNB-75 4.61 µM | 786-0 3.81 µM

Cc1ccc(C)c(NC(=O)CC/C(=N\NC(=O)C(=O)NN)C(C)C(=O)c2ccc(O)cc2)c1 (stereo not drawn)
inactive: HT-29 > 100 µM | HCC 2998 > 100 µM | IGROV-1 > 100 µM | EKVX > 100 µM | RPMI-8226 > 100 µM | UACC-257 > 100 µM | OVCAR-3 > 100 µM | NCI-H460 > 100 µM | SK-OV-3 > 100 µM | ACHN > 100 µM | NCI-H226 > 100 µM | KM12 > 100 µM | COLO 205 > 100 µM | U-251 > 100 µM | LOX IMVI > 100 µM | K562 > 100 µM | MOLT-4 > 100 µM | SNB-75 > 100 µM | 786-0 > 100 µM

CCOC(=O)NC(=O)c1cn(CCCOC(=O)CCCCCCCCCCC(=O)OCCCn2cc(C(=O)NC(=O)OCC)c(=O)n(C)c2=O)c(=O)n(C)c1=O
inactive: HT-29 > 100 µM | HCC 2998 > 100 µM | IGROV-1 > 100 µM | EKVX > 100 µM | RPMI-8226 > 100 µM | UACC-257 > 100 µM | OVCAR-3 > 100 µM | NCI-H460 > 100 µM | SK-OV-3 > 100 µM | ACHN > 100 µM | NCI-H226 > 100 µM | KM12 > 100 µM | COLO 205 > 100 µM | U-251 > 100 µM | LOX IMVI > 100 µM | K562 > 100 µM | MOLT-4 > 100 µM | SNB-75 47.9 µM | 786-0 > 100 µM

COC(=O)/C(=N\Nc1nc(S)nn1N)C(C#N)c1ccccc1 (stereo not drawn)
inactive: HT-29 > 100 µM | HCC 2998 > 100 µM | IGROV-1 > 100 µM | EKVX > 100 µM | RPMI-8226 > 100 µM | UACC-257 > 100 µM | OVCAR-3 > 100 µM | NCI-H460 > 100 µM | SK-OV-3 > 100 µM | ACHN > 100 µM | NCI-H226 > 100 µM | KM12 > 100 µM | COLO 205 > 100 µM | U-251 > 100 µM | LOX IMVI > 100 µM | K562 > 100 µM | MOLT-4 > 100 µM | SNB-75 > 100 µM | 786-0 > 100 µM

CCOC(=O)/C(I)=C/c1cc(OC)c(OC)c(OC)c1
inactive: HT-29 4.55 µM | HCC 2998 14.2 µM | IGROV-1 22.2 µM | EKVX 15.8 µM | RPMI-8226 4.02 µM | UACC-257 10.8 µM | OVCAR-3 3.94 µM | NCI-H460 40.6 µM | SK-OV-3 26.9 µM | ACHN 7.14 µM | NCI-H226 4.69 µM | KM12 6.4 µM | COLO 205 6.12 µM | U-251 6.11 µM | LOX IMVI 1.75 µM | K562 3.86 µM | MOLT-4 7.01 µM | SNB-75 28.8 µM | 786-0 4.44 µM

Cn1c2cc(O)cc(O)c2c(=O)c2c([N+](=O)[O-])cccc21
inactive: HT-29 > 100 µM | HCC 2998 > 100 µM | IGROV-1 > 100 µM | EKVX > 100 µM | RPMI-8226 > 100 µM | UACC-257 > 100 µM | OVCAR-3 > 100 µM | NCI-H460 > 100 µM | SK-OV-3 > 100 µM | ACHN > 100 µM | NCI-H226 > 100 µM | KM12 > 100 µM | COLO 205 > 100 µM | U-251 > 100 µM | LOX IMVI > 100 µM | K562 > 100 µM | MOLT-4 > 100 µM | SNB-75 > 100 µM | 786-0 > 100 µM
